Reference: patent US5688787A, “Substituted β-lactam compounds useful as hypochlesterolemic agents and processes for the preparation thereof” (priority 1996, dated 1997)
Like-named read-outs stand apart in the source and are kept apart here.

Tested on: Hyperlipidemic Hamster
Assay: In Vivo Assay of Hypolipidemic Agents Using the Hyperlipidemic Hamster
Conditions: for change in vivo at 50 mg/kg / change in vivo at 3 mg/kg / change in vivo at 5 mg/kg / change in vivo at 10 mg/kg / change in vivo at 1 mg/kg: Mesocricetus auratus, po, 168 h; for change in vivo at 3 mg/kg: 3 mg/kg once daily oral; for change in vivo at 5 mg/kg: 5 mg/kg once daily oral; for change in vivo at 10 mg/kg: 10 mg/kg once daily oral; for change in vivo at 1 mg/kg: 1 mg/kg once daily oral
Description: In Vivo Assay of Hypolipidemic Agents Using the Hyperlipidemic Hamster
Hamsters are separated into groups of six and given a controlled cholesterol diet (Purina Chow #5001 containing 0.5% cholesterol) for seven days. Diet consumption is monitored to determine dietary cholesterol exposure in the face of test compounds. The animals are dosed with the test compound once daily beginning with the initiation of diet. Dosing is by oral gavage of 0.2mL of corn oil alone (control group) or solution (or suspension) of test compound in corn oil. All animals roodbund or in poor physical condition are euthanized. After seven days, the animals are anesthetized by IM injection of ketamine and sacrificed by decapitation. Blood is collected into vacutainer tubes containing EDTA for plasma lipid analysis and the liver excised for tissue lipid analysis. Data is reported as percent reduction of lipid versus control.
Using the test procedures described above, the following in vitro and in vivo data were obtained for the preferred compounds, which are referred to in the following table by the corresponding example numbers. For the in vitro ACAT data, negative percent inhibition denotes apparent stimulation,while positive numbers denote inhibition. For the in vivo results, data is reported as percent change versus control, therefore, negative numbers indicate a positive lipid-lowering effect.

[1] = 50 mg/kg once daily oral, 7 days, percent change versus control, negative = lowering, read-out: % Reduction (in vivo) Cholest. Esters
[2] = 50 mg/kg once daily oral, 7 days, percent change versus control, negative = lowering, read-out: % Reduction (in vivo) Serum Cholest.
[3] = 7 days, percent change versus control, negative = lowering, read-out: % Reduction (in vivo) Cholest. Esters
[4] = 7 days, percent change versus control, negative = lowering, read-out: % Reduction (in vivo) Serum Cholest.
[5] = 50 mg/kg once daily oral, 7 days, percent change versus control, negative = lowering

SMILES	change in vivo at 50 mg/kg [1]	change in vivo at 50 mg/kg [2]	other results
COc1ccc(NC[C@H]2[C@@H](CCCc3ccccc3)C(=O)N2c2ccc(OC)cc2)cc1 (relative stereo) [Example 19D]	-18%	-15%	–
COc1ccc(N2C(=O)[C@H](CCCc3ccccc3)[C@H]2c2nccn2COCC[Si](C)(C)C)cc1 (relative stereo) [Example 1AV]	–	–	change in vivo at 50 mg/kg (read-out: % Reduction (in vivo) Cholest. Esters): 0%; change in vivo at 50 mg/kg (read-out: % Reduction (in vivo) Serum Cholest.): 15%
COc1ccc(N2C(=O)[C@H](CCCc3ccccc3)[C@@H]2c2ccc(S)cc2)cc1 (relative stereo) [Example 28]	0%	-19%	–
COc1ccc([C@@H]2[C@@H](CCCc3ccccc3)C(=O)N2c2ccc(OC)cc2)cc1 [Example 9, (3R,4S)-1,4-bis-(4-methoxyphenyl)-3-(3-phenylpropyl)-2-azetidinone]	–	–	change in vivo at 3 mg/kg [3]: -68%; change in vivo at 3 mg/kg [4]: -25%; change in vivo at 5 mg/kg [3]: -66%; change in vivo at 5 mg/kg [4]: -21.5%; change in vivo at 10 mg/kg [3]: -93%; change in vivo at 10 mg/kg [4]: -43%
COc1ccc(N2C(=O)[C@H](CCCc3ccccc3)[C@H]2c2ccc(CN3CCN(C)CC3)cc2)cc1 (relative stereo) [Example 19C]	-46%	-9%	–
COc1ccc([C@@H]2[C@@H](CCCc3ccccc3)C(=O)N2c2ccccc2)cc1 [Example 5L]	–	–	change in vivo at 1 mg/kg [3]: -64%; change in vivo at 1 mg/kg [4]: -54%; change in vivo at 3 mg/kg [3]: -84%; change in vivo at 3 mg/kg [4]: -39%; change in vivo at 10 mg/kg [3]: -95%; change in vivo at 10 mg/kg [4]: -50%
COc1ccc([C@@H]2[C@@H](/C=C/Cc3ccccc3)C(=O)N2c2ccc(OC)cc2)cc1 (relative stereo) [Example 7AJ]	-18%	0%	–
COc1ccc([C@@H]2[C@H](N(C)CCc3ccccc3)C(=O)N2c2ccccc2)cc1 (relative stereo) [Example 7K]	-32%	0%	–
COc1ccc([C@@H]2[C@H](NCC(c3ccccc3)c3ccccc3)C(=O)N2c2ccccc2)cc1 (relative stereo) [Example 14B]	0%	0%	–
COc1ccc([C@@H]2[C@@H](Cc3ccc4ccccc4c3)C(=O)N2c2ccccc2)cc1 (relative stereo) [Example 7AO]	-90%	-41%	–
CON=Cc1ccc([C@H]2[C@H](CCCc3ccccc3)C(=O)N2c2ccc(OC)cc2)cc1 (relative stereo) [Example 27A]	-42%	-15%	–
CCOc1ccc(N2C(=O)[C@H](CCCc3ccccc3)[C@H]2c2ccc(OC)cc2)cc1 (relative stereo) [Example 5H]	-96%	-57%	–
COc1ccc([C@H]2[C@@H](CCCc3ccccc3)C(=O)N2c2ccc(C)cc2)cc1 (relative stereo) [Example 1AP]	-95%	-51%	–
COc1ccc(N2C(=O)[C@H](CCCc3ccccc3)[C@H]2c2ccc(OC)c(F)c2)cc1 (relative stereo) [Example 7S]	-82%	-27%	–
COc1ccc([C@@H]2[C@@H](CCCc3ccccc3)C(=O)N2c2ccc3c(c2)CCC3)cc1 (relative stereo) [Example 7AR]	-88%	-32%	–
COc1ccc(N2C(=O)[C@H](CCCc3ccccc3)[C@H]2c2ccc(NC(C)=O)cc2)cc1 (relative stereo) [Example 26]	-26%	-4%	–
COc1ccc([C@@H]2[C@@H](CCCc3ccccc3)C(=O)N2c2ccc(OC)nc2)cc1 (relative stereo) [Example 7F]	-26%	0%	–
COc1ccc(N2C(=O)[C@H](CCCc3ccccc3)[C@@H]2c2ccc(S(N)(=O)=O)cc2)cc1 (relative stereo) [Example 29]	-24%	-22%	–
COc1ccc(N2C(=O)C(CCCc3ccccc3)C2c2ccc(C3OCCO3)cc2)cc1 (centres unmarked) [Example 1AX]	–	–	% Reduction (in vivo) Cholest. Esters [5]: -52%; % Reduction (in vivo) Serum Cholest. [5]: -16%

SMILES	change in vivo at 50 mg/kg [1]	change in vivo at 50 mg/kg [2]	other results
COc1ccc([C@@H]2[C@@H](CCCc3ccccc3)C(=O)N2c2cc(F)cc(F)c2)cc1 (relative stereo) [Example 7E]	-93%	-52%	–
COc1ccc(N2C(=O)[C@H](CCCc3ccccc3)[C@H]2c2ccc(OCc3ccccc3)cc2)cc1 (relative stereo) [Example 5T]	-48%	-15%	–
COc1ccc(C2C(CCCc3ccccc3)C(=O)N2c2ccc(Oc3ccccc3)cc2)cc1 (centres unmarked) [Example 5K]	-49%	-28%	–
CCOc1ccc([C@H]2[C@@H](CCCc3ccccc3)C(=O)N2c2ccccc2)cc1 (relative stereo) [Example 1BY]	-72%	-18%	–
COc1ccc(N2C(=O)[C@H](CCCc3ccccc3)[C@H]2c2ccc(N(S(C)(=O)=O)S(C)(=O)=O)cc2)cc1 (relative stereo) [Example 25A]	0%	-13%	–
COc1ccc([C@@H]2[C@@H](/C=C\Cc3ccccc3)C(=O)N2c2ccc(OC)cc2)cc1 (relative stereo) [Example 7AI]	-95%	-63%	change in vivo at 3 mg/kg [3]: -46%; change in vivo at 3 mg/kg [4]: -11%; change in vivo at 10 mg/kg [3]: -73%; change in vivo at 10 mg/kg [4]: -20%
COc1ccc([C@@H]2[C@H](NC(=O)COc3ccccc3)C(=O)N2c2ccccc2)cc1 (relative stereo) [Example 12B]	-26%	0%	–
COc1ccc([C@@H]2[C@H](N(C)C)C(=O)N2c2ccccc2)cc1 (relative stereo) [Example 1CJ]	0%	0%	–
COc1ccc([C@@H]2[C@H](NCCCC3CCCCC3)C(=O)N2c2ccccc2)cc1 (relative stereo) [Example 14C]	0%	0%	–
COc1ccc([C@@H]2[C@@H](CCCc3ccc(N=[N+]=[N-])cc3)C(=O)N2c2ccc(OC)cc2)cc1 (relative stereo) [Example 33]	0%	0%	–
C=CCOc1ccc([C@H]2[C@@H](CCCc3ccccc3)C(=O)N2c2ccc(OC)cc2)cc1 (relative stereo) [Example 1BU]	-95%	-39%	–
COc1ccc([C@@H]2[C@@H](CCCc3ccccc3)C(=O)N2c2ccc(SC)cc2)cc1 (relative stereo) [Example 5I]	-70%	-26%	–
COc1ccc([C@@H]2[C@H](Cc3ccc4ccccc4c3)C(=O)N2c2ccccc2)cc1 (relative stereo) [Example 7AQ]	-91%	-52%	–
COc1ccc(N2C(=O)[C@H](CCCc3ccccc3)[C@H]2c2cc[n+]([O-])cc2)cc1 (relative stereo) [Example 20]	0%	12%	–
COc1ccc(C(=O)[C@@H]2[C@@H](CCCc3ccccc3)C(=O)N2c2ccc(OC)cc2)cc1 (relative stereo) [Example 7V]	0%	0%	–
CCCCOc1ccc([C@H]2[C@@H](CCCc3ccccc3)C(=O)N2c2ccc(OC)cc2)cc1 (relative stereo) [Example 1BR]	-70%	-15%	–
COc1ccc([C@H]2[C@@H](CCOc3ccc(F)cc3)C(=O)N2c2ccccc2)cc1 (relative stereo) [Example 1CH]	-95%	-49%	change in vivo at 3 mg/kg [3]: -80%; change in vivo at 3 mg/kg [4]: -24%; change in vivo at 10 mg/kg [3]: -90%; change in vivo at 10 mg/kg [4]: -41%
CCOC(=O)[C@@H]1[C@H](CCCc2ccccc2)C(=O)N1c1ccc(OC)cc1 (relative stereo) [Example 7N]	0%	-11%	–
COc1ccc(N2C(=O)[C@@H](CCCc3ccccc3)[C@@H]2c2cc3ccccc3o2)cc1 (relative stereo) [Example 1CA]	0%	-12%	–
